BindingDB's records for PubMed 6248635 (Stanford University, 1980)
Values joined by “and” are separate entries in the source; they are usually repeats but may differ in a detail not shown here. Equal values may be shown once.

Key:
Opioid receptor delta 1 = Opioid receptor delta 1 (Bos taurus, UniProt F1N083)
Beta-arrestin-1 = Beta-arrestin-1 (Oryctolagus cuniculus, UniProt Q95223)
[1] = biological target: Delta-type opioid receptor (Mus musculus, UniProt P32300)
Chain of Delta-type opioid receptor (P32300 whole entry): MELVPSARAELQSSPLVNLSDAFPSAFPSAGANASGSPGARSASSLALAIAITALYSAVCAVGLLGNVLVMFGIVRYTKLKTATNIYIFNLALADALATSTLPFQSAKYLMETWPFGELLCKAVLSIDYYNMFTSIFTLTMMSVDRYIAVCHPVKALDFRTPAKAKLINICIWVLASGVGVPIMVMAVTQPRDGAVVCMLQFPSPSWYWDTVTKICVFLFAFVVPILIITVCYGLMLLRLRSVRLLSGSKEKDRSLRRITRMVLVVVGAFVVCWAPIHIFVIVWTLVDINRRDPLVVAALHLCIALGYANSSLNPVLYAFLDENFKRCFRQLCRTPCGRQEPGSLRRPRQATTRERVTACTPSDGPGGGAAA

Chain of Opioid receptor delta 1 (F1N083 whole entry): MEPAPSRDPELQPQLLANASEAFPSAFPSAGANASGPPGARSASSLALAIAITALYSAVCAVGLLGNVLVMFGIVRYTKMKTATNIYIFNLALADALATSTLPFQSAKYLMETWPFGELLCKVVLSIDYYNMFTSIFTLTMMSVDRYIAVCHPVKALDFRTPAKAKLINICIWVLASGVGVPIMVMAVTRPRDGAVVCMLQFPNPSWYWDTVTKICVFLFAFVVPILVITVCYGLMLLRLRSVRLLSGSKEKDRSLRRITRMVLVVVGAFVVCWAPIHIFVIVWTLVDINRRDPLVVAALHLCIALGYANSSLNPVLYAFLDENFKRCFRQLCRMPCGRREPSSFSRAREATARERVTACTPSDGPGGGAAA
Chain of Beta-arrestin-1 (Q95223 whole entry): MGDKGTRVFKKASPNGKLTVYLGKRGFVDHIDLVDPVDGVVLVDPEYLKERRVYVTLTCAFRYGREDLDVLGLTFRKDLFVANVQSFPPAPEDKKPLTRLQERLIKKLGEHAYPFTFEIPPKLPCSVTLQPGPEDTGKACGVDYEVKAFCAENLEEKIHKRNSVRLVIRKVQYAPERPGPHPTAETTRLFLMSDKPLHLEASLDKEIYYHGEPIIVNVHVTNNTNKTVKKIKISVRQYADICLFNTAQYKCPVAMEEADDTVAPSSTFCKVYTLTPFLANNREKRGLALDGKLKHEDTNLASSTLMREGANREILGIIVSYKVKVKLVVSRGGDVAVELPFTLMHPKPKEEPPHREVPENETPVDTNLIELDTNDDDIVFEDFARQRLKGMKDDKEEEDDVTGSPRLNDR

H-YGGFMTSEKSQTPLVTLFKNAIVKNAHKKGQ-OH [Beta-Endorphin]
Ki (Opioid receptor delta 1): 14 nM and 58.1 nM | Ki (Beta-arrestin-1): 21 nM

CC(C)C[C@H](NC(=O)[C@H](Cc1ccccc1)NC(=O)CNC(=O)[C@@H](C)NC(=O)[C@@H](N)Cc1ccc(O)cc1)C(=O)O [DALLE]
Ki (Opioid receptor delta 1): 1.8 nM and 7.4 nM | Ki (Beta-arrestin-1): 3.6 nM

CN1CC[C@]23c4c5ccc(O)c4O[C@H]2[C@@H](O)CCC3[C@H]1C5 (stereo partly drawn) [DIHYDROMORPHINE]
Ki (Opioid receptor delta 1): 38.1 nM and 35.6 nM | Ki [1]: 127 nM

CC(C)C[C@@H](NC(=O)[C@H](Cc1ccccc1)NC(=O)CNC(=O)[C@@H](C)NC(=O)[C@@H](N)Cc1ccc(O)cc1)C(=O)O [[D-Ala2-D-Leu5]enkephalin]
Ki (Opioid receptor delta 1): 1.8 nM and 9.7 nM

C=CCN1CC[C@]23c4c5ccc(O)c4O[C@H]2C(=O)CC[C@@]3(O)[C@H]1C5 [[17-(2,3-3H-2-propenyl)]-4,5a-epoxy-3,14-dihydroxymorphinan-6-one]
Ki (Beta-arrestin-1): 67.4 nM
